Structures are written as SMILES. Several values for one entry are separate records, joined by “and”; a condition that tells them apart may be missing. Identical values can stand only once.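 How tested: cells in 96-well plates exposed to compound for 48 hours at five concentrations. GI50 = concentration required for 50% inhibition of growth. TGI denotes the concentration required for complete inhibition of growth.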 Where only a bound is given, the exact number is not on record here.

Test in all cases: NCI anticancer screen, dose series, 48 h
Experiment [1] relates to SNB-19 CNS.
The test system of experiment [2] is EKVX NSCLC.
In experiment [3] the test system is HCT-15 colon.
The subject of experiment [4] is SNB-75 CNS.
Experiment [5] has as its system OVCAR-5 ovarian.
The test system of experiment [6] is KM12 colon.
Experiment [7] relates to UO-31 renal.
Experiment [8] relates to OVCAR-8 ovarian.
For experiment [9], the system named is TK-10 renal.
The subject of experiment [10] is SF-539 CNS.

Consider `c1ccc(-c2cc(C3CO3)c3ccccc3n2)cc1` (configuration not stated), for which the TGI in experiment [1] turned out to be 95.5 µM; in experiment [2] it was 34.1 µM; in experiment [3], 40.7 µM; in experiment [4], 62.6 µM; in experiment [5] it was 40.5 µM; in experiment [6] it was 33 µM. In addition, the TGI was found to be 3.51 µM in [7], 43.2 µM in experiment [8], 53.4 µM in [9] and 56.7 µM in experiment [10].
For `Cc1c(C(=O)C/C(=N/NC(=O)C[n+]2ccccc2)C(=O)Nc2ccccc2)[n+](=O)c2ccccc2n1O`, the TGI in experiment [1], in [2], in experiment [3], in [4], in experiment [5] and in experiment [6] was above 100 µM throughout. Also, the TGI in [7], in experiment [8], in experiment [9] and in [10] was above 100 µM in each case.
Regarding `CC(=O)OCC(=O)O[C@@H]1C[C@]2(C(C)C)O[C@@]1(C)[C@@H]1CC[C@@H](C)[C@H]1[C@@H]2OC(=O)/C=C/c1ccccc1`, the GI50 in [1] was 30.2 µM; in experiment [2] it was 13.8 µM; in experiment [3], 17.8 µM; in experiment [4] it was 13.2 µM; in experiment [5], 15.5 µM; in [6], 26.7 µM. Further, the GI50 in experiment [7] was 33.6 nM; in experiment [8] it was 74.7 nM; in experiment [9] it was 15.5 µM; in [10] it was 28200 nM. Also, the TGI in experiment [1] is above 100 µM; in experiment [2], 59.1 µM; in experiment [3], above 100 µM; in [4], 58.4 µM; in [5] it was 33.6 µM; in [6] it was above 100 µM. Also, the TGI in experiment [7] is 0.242 µM; in [8] it was above 56.3 µM; in experiment [9], 39.7 µM; in experiment [10], above 100 µM.
As for `O=C(Nc1cccc(Oc2nnc(Cl)c3ccccc23)c1)Nc1ccc(Cl)c(C(F)(F)F)c1`, the GI50 in experiment [1] is 1.26 µM; in experiment [2] it was 0.646 µM; in [3], 0.765 µM; in experiment [4], 1.61 µM; in experiment [5], 1.24 µM; in [6] it was 0.701 µM. In addition, the GI50 in experiment [7] is 176 nM; in experiment [8], 1300 nM; in experiment [9], 2.32 µM; in experiment [10] it was 1380 nM. The TGI in experiment [1] was found to be 4.9 µM; in [2], 6.49 µM; in experiment [3], 3.53 µM; in [4], 5.63 µM; in experiment [5], 4.26 µM; in [6], 2.97 µM. In addition, the TGI in [7] came to 4.19 µM; in experiment [8], 9.5 µM; in experiment [9], 6.55 µM; in experiment [10], 4.01 µM.
As for `CC(=O)O[C@]1(C)OC(=O)[C@@H](C)N1[N+](=O)[O-]`, the TGI in experiment [1], in experiment [2], in [3], in [4], in experiment [5] and in [6] was above 100 µM in each case. Moreover, the TGI in experiment [7], in [8], in [9] and in experiment [10] was above 100 µM in each case.
Regarding `CC(C)(C)c1[nH]cnc1/C=c1\[nH]c(=O)/c(=C/c2ccccc2)[nH]c1=O`, the GI50 is below 0.01 µM in experiment [1]; 0.0482 µM in [2]; below 0.01 µM in experiment [3]; below 0.01 µM in experiment [4]; 0.0335 µM in experiment [5]; below 0.01 µM in experiment [6]. In addition, the GI50 in experiment [7] was below 14.4 nM; in experiment [8], below 12.5 nM; in experiment [9] it was 14.1 µM; in [10], below 10 nM. Also, the TGI is above 100 µM in experiment [1]; 35.5 µM in experiment [2]; 13.5 µM in experiment [3]; 44 µM in [4]; 86.1 µM in experiment [5]; 7.44 µM in experiment [6]. For the same compound, the TGI in experiment [7] is 27.6 µM; in experiment [8], 50.8 µM; in experiment [9], above 100 µM; in experiment [10], 0.0321 µM.
In the case of `C=CC(C)(O)/C=C/C=C(\C)C(CC1OC1(C)C)OC(=O)/C(C)=C\C` (configuration not stated), the TGI in experiment [1], in experiment [2], in experiment [3], in [4], in experiment [5] and in experiment [6] was above 100 µM in each case. Also, the TGI in [7], in experiment [8], in experiment [9] and in [10] was above 100 µM each time.
Consider `CC(C)(C)CC(C)(C)c1cc2c(O)c(c1)Cc1cc(C(C)(C)CC(C)(C)C)cc(c1O)Cc1cc(C(C)(C)CC(C)(C)C)cc(c1O)Cc1cc(C(C)(C)CC(C)(C)C)cc(c1O)Cc1cc(C(C)(C)CC(C)(C)C)cc(c1O)Cc1cc(C(C)(C)CC(C)(C)C)cc(c1O)C2`, for which the TGI in experiment [1], in experiment [2], in [3], in experiment [4], in experiment [5] and in [6] was above 100 µM each time. The TGI in [7], in [8], in experiment [9] and in experiment [10] was above 100 µM each time.
As for `C/C(=C\C1=C(Cl)C(=O)c2ccccc2C1=O)C(=O)O`, the GI50 in experiment [1] was 17.7 µM; in experiment [2], 18.6 µM; in [3], 18.2 µM; in experiment [4] it was 21.5 µM; in experiment [5] it was 22.5 µM; in experiment [6] it was 18.1 µM. For the same compound, the GI50 is 15500 nM in [7], 22600 nM in experiment [8], 23.3 µM in experiment [9] and 17700 nM in experiment [10]. Besides, the TGI in experiment [1] was found to be 31.7 µM; in experiment [2], 37.2 µM; in [3], 36.5 µM; in experiment [4], 35.9 µM; in [5] it was 37.4 µM; in experiment [6] it was 33.7 µM. Besides, the TGI was 28.9 µM in experiment [7], 45.6 µM in experiment [8], 38.1 µM in experiment [9] and 31.9 µM in [10].
Consider `CN(C)CCOc1ccc(/C(=C(/CCCl)c2ccccc2)c2ccccc2)cc1`, for which the GI50 in [1] was 1.85 µM; in [2], 1.81 µM; in [3], 1.95 µM; in experiment [4], 1.11 µM; in [5], 1.52 µM; in [6], 1.18 µM. Also, the GI50 in experiment [7] is 900 nM; in [8], 1080 nM; in experiment [9], 0.991 µM; in experiment [10] it was 891 nM. For the same compound, the TGI in experiment [1] is 22.6 µM and 28.5 µM; in experiment [2] it was 21 µM and 29.4 µM; in [3] it was 7.87 µM and 28.1 µM; in experiment [4], 4.48 µM and 24.2 µM; in experiment [5] it was 5.09 µM and 33.5 µM; in [6], 12.8 µM and 32.4 µM. For the same compound, the TGI in [7] is 13.8 µM and 30.9 µM.
As for `O=C(c1ccccc1)c1ccc(OCCOc2ccc(Nc3ccccc3)cc2)cc1`, the TGI in [1] is above 100 µM; in [2], above 100 µM; in experiment [3], above 100 µM; in experiment [4], 33.4 µM; in experiment [5] it was above 100 µM; in experiment [6], above 100 µM. In addition, the TGI in [7] was above 100 µM; in [8] it was above 100 µM; in experiment [9], 84.3 µM; in experiment [10] it was above 100 µM.
For the compound `Cc1cnc(/C=N\NC(N)=S)c2cccc(N)c12`, the GI50 is 3.42 µM in [1]; 3.15 µM in [2]; 3.59 µM in experiment [3]; 1.35 µM in experiment [4]; above 21.3 µM in experiment [5]; 4.82 µM in experiment [6]. In addition, the GI50 is 1880 nM in [7], 2660 nM in experiment [8], 6.89 µM in [9] and 596 nM in experiment [10]. Moreover, the TGI in experiment [1] is above 100 µM; in experiment [2] it was > 100 µM and 53.6 µM; in experiment [3] it was above 100 µM; in experiment [4] it was > 27 µM and 9.48 µM; in experiment [5], above 100 µM; in experiment [6], above 100 µM. Moreover, the TGI in [7] is 10.3 µM and 4.4 µM; in experiment [8] it was above 100 µM; in [9], above 100 µM; in [10], 3.7 µM and > 27.7 µM.
For `O=C1C2=Nc3ccccc3C(O)N2c2ccccc21` (configuration not stated), the TGI was above 100 µM in experiment [1]; above 100 µM in experiment [2]; above 100 µM in [3]; 90.4 µM in [4]; above 100 µM in experiment [5]; above 100 µM in experiment [6]. The TGI in [7], in experiment [8], in [9] and in experiment [10] was above 100 µM throughout.
On to `O=C1CCCC/C1=C1\C(=O)Nc2cc(F)ccc21`, for which the TGI in [1], in [2], in experiment [3], in experiment [4], in [5] and in experiment [6] was above 100 µM throughout. For the same compound, the TGI in experiment [7], in [8], in [9] and in experiment [10] was above 100 µM throughout.
As for `Cn1c(O)c(C(/C=C/c2ccccc2)=NCCN=C(/C=C/c2ccccc2)c2c(O)n(C)c(=O)n(C)c2=O)c(=O)n(C)c1=O`, the GI50 was 21.6 µM in [1]; 25.8 µM in experiment [2]; 14.5 µM in experiment [3]; 17.6 µM in experiment [4]; 16.8 µM in experiment [5]; 14.1 µM in experiment [6]. The GI50 was 23300 nM in experiment [7], 16600 nM in experiment [8], 23.7 µM in experiment [9] and 13700 nM in experiment [10]. The TGI in [1], in [2], in [3], in experiment [4], in [5] and in experiment [6] was above 50 µM each time. The TGI in experiment [7] is above 50 µM; in experiment [8], above 50 µM; in experiment [9] it was above 50 µM; in [10], 33.3 µM.
With `C[C@@H]1CC[C@@H]2[C@@H]1[C@H](OC(=O)/C=C/c1ccccc1)[C@]1(C3CCCCC3)C[C@@H](NC(=O)CO)[C@@]2(C)O1`, the GI50 is 17.6 µM in experiment [1]; 13.5 µM in experiment [2]; 15.8 µM in experiment [3]; 12.6 µM in experiment [4]; 16.2 µM in [5]; 16.3 µM in experiment [6]. The GI50 in [7] was 4800 nM; in [8] it was 16300 nM; in experiment [9] it was 18.4 µM; in experiment [10] it was 16700 nM. The TGI in experiment [1] is 32.3 µM; in experiment [2], 27.5 µM; in experiment [3], 33.2 µM; in experiment [4], 26.9 µM; in experiment [5], 30.8 µM; in experiment [6], 32 µM. Further, the TGI in [7] worked out at 18.7 µM; in [8], 32 µM; in experiment [9] it was 35.3 µM; in [10], 31.4 µM.
For `CC(C)(C#N)c1cc(F)cc(C(=O)Nc2cc(Nc3ncccc3-c3ncnc4nc[nH]c34)ccc2F)c1`, the GI50 in experiment [1] was 4.44 µM; in [2] it was 6.55 µM; in experiment [3], 3.59 µM; in [4], 3.31 µM; in [5], 0.451 µM; in experiment [6] it was 1.73 µM. Moreover, the GI50 in experiment [7] is 287 nM; in [8], 3160 nM; in [9], above 10 µM; in experiment [10], 527 nM. Also, the TGI in [1], in experiment [2], in experiment [3], in experiment [4], in experiment [5] and in [6] was above 10 µM each time. Further, the TGI in experiment [7] was 3.64 µM; in [8], above 10 µM; in experiment [9], above 10 µM; in [10], 5.65 µM.
Consider `CCSC1(SCC)CC(Cc2ccc(OC)cc2)N(C=NC(C)(C)C)C1` (configuration not stated), for which the TGI in experiment [1] was above 100 µM; in experiment [2] it was above 100 µM; in experiment [3], above 100 µM; in experiment [4], above 100 µM; in [5], above 100 µM; in experiment [6] it was 64.8 µM. Also, the TGI in experiment [7] is 87.5 µM; in [8] it was above 100 µM; in experiment [9], 63.2 µM; in [10] it was above 100 µM.

These data come from PubChem BioAssay (NCI).
